Test results published in patent US10131702B2, “Glucagon-GLP-1-GIP triple agonist compounds” (priority 2013, dated 2018).
pEC50: −log10 of the molar value. Like-named read-outs stand apart in the source and are kept apart here. Numbered stars: 1 amine (or outer) side, 2 acyl side, 3 side chain; on linkers, the order of the positions; unused ones are H or OH. Square brackets hold non-standard residues; d marks the D form. Side chains are listed from the residue outwards. Peptide text beside a SMILES is read from it. * marks the point of attachment. γGlu = O=C(O)[C@H](CCC(=O)[*:2])N[*:1]; Stearoyl = CCCCCCCCCCCCCCCCCC(=O)*; AEEA = NCCOCCOCC(=O)O; Aib = CC(C)(N)C(=O)O

What was measured:
Format in all cases: cell-based
human GCG R = biological target: T1, human GCG R (Homo sapiens, UniProt P47871); experiment: cAMP induction in HEK293 cells expressing human GCG R (AlphaScreen cAMP kit)
T1 construct: expressed in transfected cells
T1 sequence (P47871 26-477): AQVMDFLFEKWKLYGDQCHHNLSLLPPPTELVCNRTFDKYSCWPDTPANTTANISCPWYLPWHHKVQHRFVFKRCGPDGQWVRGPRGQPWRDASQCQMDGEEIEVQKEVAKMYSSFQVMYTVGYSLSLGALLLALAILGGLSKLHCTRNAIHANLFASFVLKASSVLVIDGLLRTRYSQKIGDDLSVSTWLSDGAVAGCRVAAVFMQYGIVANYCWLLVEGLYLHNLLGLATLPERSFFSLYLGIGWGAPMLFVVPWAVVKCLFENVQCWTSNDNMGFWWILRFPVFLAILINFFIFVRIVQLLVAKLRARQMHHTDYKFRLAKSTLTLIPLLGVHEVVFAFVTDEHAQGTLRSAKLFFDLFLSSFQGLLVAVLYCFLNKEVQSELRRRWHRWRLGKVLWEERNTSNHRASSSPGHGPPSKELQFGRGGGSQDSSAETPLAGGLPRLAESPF

human GLP-1 R = biological target: T2, human GLP-1 R (Homo sapiens, UniProt P43220); experiment: cAMP induction in HEK293 cells expressing human GLP-1 R (AlphaScreen cAMP kit); conditions: for EC50: average EC50, cAMP, HEK293 cells expressing human GLP-1 R, read-out: GLP1 R (EC50 in nM)
T2 construct: expressed in transfected cells
T2 sequence (P43220 24-463): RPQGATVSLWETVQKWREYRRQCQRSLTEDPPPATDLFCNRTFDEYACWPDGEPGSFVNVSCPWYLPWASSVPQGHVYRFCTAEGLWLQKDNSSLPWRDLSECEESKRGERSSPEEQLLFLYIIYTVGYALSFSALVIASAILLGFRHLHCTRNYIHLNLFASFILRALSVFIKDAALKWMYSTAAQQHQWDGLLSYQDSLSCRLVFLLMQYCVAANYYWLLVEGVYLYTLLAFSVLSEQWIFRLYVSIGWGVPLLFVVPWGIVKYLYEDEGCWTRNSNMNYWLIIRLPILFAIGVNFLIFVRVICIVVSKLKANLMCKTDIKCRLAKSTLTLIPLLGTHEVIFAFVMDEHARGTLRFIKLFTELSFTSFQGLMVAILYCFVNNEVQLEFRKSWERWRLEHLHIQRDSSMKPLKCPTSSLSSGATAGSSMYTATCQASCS
Description: (§1) Briefly, HEK293 cells expressing the human GIP R, GLP-1 R or GCG R (stable cell lines generated through transfection of the cDNA for human GIP R, GLP-1 R or GCG R and selection of stable clones) were seeded at 30,000 cells/well in 96-well microtiter plates coated with 0.01% poly-L-lysine, and grown for 1 day in culture in 200 μl growth medium (DMEM, 10% FCS, Penicillin (100 IU/ml), Streptomycin (100 μg/ml)). On the day of analysis, growth medium was removed and the cells were washed once with 150 μl Tyrode's buffer (Tyrode's Salts (9.6 g/l), 10 mM HEPES, pH 7.4). […] The Assay buffer was removed and cells are lysed in 80 μl Lysis buffer (0.1% w/v BSA, 5 mM HEPES, 0.3% v/v Tween-20) per well. From each well 10 μl of lysed cells were transferred to a 384-well plate and mixed with 15 μl bead-mix (1 Unit/15 μl anti-cAMP Acceptor Beads, 1 Unit/15 μl Donor Beads, and 1 Unit/15 μl Biotinylated cAMP in Assay Buffer). The plates were mixed and incubated in the dark for an hour at room temperature before measuring using an Envision™ plate reader (Perkin-Elmer).
(§2) The resulting cAMP curves were plotted as absolute cAMP concentrations (nM) over log (test compound concentration) and analyzed using the curve fitting program XLfit.
(§3) Parameters calculated to describe both the potency as well as the agonistic activity of each test compound on the receptors were:
(§4) EC50, a concentration resulting in a half-maximal elevation of cAMP levels, reflecting the potency of the test compound.

human GIP R = biological target: T3, human GIP R (Homo sapiens, UniProt P48546); experiment: cAMP induction in HEK293 cells expressing human GIP R (AlphaScreen cAMP kit)
T3 construct: expressed in transfected cells
T3 sequence (P48546 22-466): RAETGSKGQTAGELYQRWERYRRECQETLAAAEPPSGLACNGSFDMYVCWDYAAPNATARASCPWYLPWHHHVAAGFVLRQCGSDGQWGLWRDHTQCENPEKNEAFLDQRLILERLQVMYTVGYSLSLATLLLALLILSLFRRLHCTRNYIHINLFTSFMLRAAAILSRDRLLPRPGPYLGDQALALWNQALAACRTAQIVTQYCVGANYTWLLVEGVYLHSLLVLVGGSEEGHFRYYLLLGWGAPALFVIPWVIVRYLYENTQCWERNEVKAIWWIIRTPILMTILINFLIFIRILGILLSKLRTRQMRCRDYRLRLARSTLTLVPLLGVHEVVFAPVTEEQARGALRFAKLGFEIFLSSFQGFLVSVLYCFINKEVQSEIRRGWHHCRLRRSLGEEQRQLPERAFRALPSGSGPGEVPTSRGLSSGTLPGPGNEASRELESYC
Description: as §1, §2, §3, §4

[1] = Table 2b (most comprehensive data)
[2] = GIP R (EC50 in nM), Table 2b (most comprehensive data), average EC50, cAMP
[3] = GIP R (EC50 in nM), Table 2, average EC50, cAMP

Compound	pEC50 (human GCG R)	EC50 (human GLP-1 R; [1])	EC50 (human GIP R; [2])	EC50 (human GCG R; Table 2b (most comprehensive data), average EC50, cAMP, HEK293 cells expressing human GCG R, read-out: GCG R (EC50 in nM))	pEC50 (human GLP-1 R)	EC50 (human GIP R; Table 2b (most comprehensive data), average EC50, cAMP, read-out: GIP R (EC50 in nM))	EC50 (human GLP-1 R; Table 2)	EC50 (human GIP R; [3])
CCCCCCCCCCCCCCCCCC(=O)N[C@@H](CCC(=O)NCCOCCOCC(=O)NCCOCCOCC(=O)NCCCC[C@H](NC(=O)[C@H](CCCCN)NC(=O)[C@H](CCC(=O)O)NC(=O)[C@H](CC(C)C)NC(=O)[C@H](C)NC(=O)[C@@H](NC(=O)[C@H](CO)NC(=O)[C@H](Cc1ccc(O)cc1)NC(=O)[C@H](CC(=O)O)NC(=O)[C@H](CO)NC(=O)[C@@H](NC(=O)[C@H](Cc1ccccc1)NC(=O)[C@@H](NC(=O)CNC(=O)[C@H](CCC(N)=O)NC(=O)C(C)(C)NC(=O)[C@@H](N)Cc1ccc(O)cc1)[C@@H](C)O)[C@@H](C)O)[C@@H](C)CC)C(=O)N[C@@H](C)C(=O)N[C@@H](CCC(N)=O)C(=O)N[C@@H](CCCNC(=N)N)C(=O)N[C@@H](C)C(=O)N[C@@H](Cc1ccccc1)C(=O)N[C@H](C(=O)N[C@@H](CCC(=O)O)C(=O)N[C@@H](Cc1c[nH]c2ccccc12)C(=O)N[C@@H](CC(C)C)C(=O)N[C@@H](CC(C)C)C(=O)N[C@@H](C)C(=O)N[C@@H](CCC(N)=O)C(=O)N[C@@H](CCCCN)C(N)=O)C(C)C)C(=O)O [Compound 46] (H-Y[Aib]QGTFTSDYSIALEKK([AEEA-AEEA-γGlu-Stearoyl])AQRAFVEWLLAQK-NH2)	9.89	0.16 nM	0.011 nM					
CC[C@H](C)[C@H](NC(=O)[C@H](CO)NC(=O)[C@H](Cc1ccc(O)cc1)NC(=O)[C@H](CC(=O)O)NC(=O)[C@H](CO)NC(=O)[C@@H](NC(=O)[C@H](Cc1ccccc1)NC(=O)[C@@H](NC(=O)CNC(=O)[C@H](CCC(N)=O)NC(=O)C(C)(C)NC(=O)[C@@H](N)Cc1ccc(O)cc1)[C@@H](C)O)[C@@H](C)O)C(=O)N[C@@H](Cc1ccc(O)cc1)C(=O)N[C@@H](CC(C)C)C(=O)N[C@@H](CC(=O)O)C(=O)N[C@@H](CCCCN)C(=O)N[C@@H](CCCCNC(=O)CC[C@H](NC(=O)CCCCCCCCCCCCCCCCC(=O)O)C(=O)O)C(=O)N[C@@H](C)C(=O)N[C@@H](CCC(N)=O)C(=O)N[C@@H](CCCNC(=N)N)C(=O)N[C@@H](C)C(=O)N[C@@H](Cc1ccccc1)C(=O)N[C@H](C(=O)N[C@@H](CCC(=O)O)C(=O)N[C@@H](Cc1c[nH]c2ccccc12)C(=O)N[C@@H](CC(C)C)C(=O)N[C@@H](CC(C)C)C(=O)N[C@@H](C)C(=O)N[C@@H](CCC(N)=O)C(=O)NCC(=O)N1CCC[C@H]1C(=O)N[C@@H](CO)C(=O)N[C@@H](CO)C(=O)NCC(=O)N[C@@H](C)C(=O)N1CCC[C@H]1C(=O)N1CCC[C@H]1C(=O)N1CCC[C@H]1C(=O)N[C@@H](CO)C(N)=O)C(C)C [Compound 34] (HELM PEPTIDE1{Y.[Aib].Q.G.T.F.T.S.D.Y.S.I.Y.L.D.K.K.A.Q.R.A.F.V.E.W.L.L.A.Q.G.P.S.S.G.A.P.P.P.S.[am]}|PEPTIDE2{[O=C(O)CCCCCCCCCCCCCCCCC(=O)[*:2]].[gGlu]}$PEPTIDE1,PEPTIDE2,17:R3-2:R2$$$V2.0)				0.11 nM	11.18	0.007 nM		
CC[C@H](C)[C@H](NC(=O)[C@H](CO)NC(=O)[C@H](Cc1ccc(O)cc1)NC(=O)[C@H](CC(=O)O)NC(=O)[C@H](CO)NC(=O)[C@@H](NC(=O)[C@H](Cc1ccccc1)NC(=O)[C@@H](NC(=O)CNC(=O)[C@H](CCC(N)=O)NC(=O)C(C)(C)NC(=O)[C@@H](N)Cc1ccc(O)cc1)[C@@H](C)O)[C@@H](C)O)C(=O)N[C@@H](Cc1ccc(O)cc1)C(=O)N[C@@H](CC(C)C)C(=O)N[C@@H](CC(=O)O)C(=O)N[C@@H](CO)C(=O)N[C@@H](CCCCN)C(=O)N[C@@H](C)C(=O)N[C@@H](C)C(=O)N[C@@H](Cc1c[nH]cn1)C(=O)N[C@@H](CC(=O)O)C(=O)N[C@@H](Cc1ccccc1)C(=O)N[C@H](C(=O)N[C@@H](CCC(=O)O)C(=O)N[C@@H](Cc1c[nH]c2ccccc12)C(=O)N[C@@H](CC(C)C)C(=O)N[C@@H](CC(C)C)C(=O)N[C@@H](CO)C(=O)N[C@@H](C)C(N)=O)C(C)C [Compound 5] (HELM PEPTIDE1{Y.[Aib].Q.G.T.F.T.S.D.Y.S.I.Y.L.D.S.K.A.A.H.D.F.V.E.W.L.L.S.A.[am]}$$$$V2.0)	10.19		0.009 nM				0.0092 nM	0.17 nM
CC(C)C[C@H](NC(=O)[C@H](CC(C)C)NC(=O)[C@H](Cc1c[nH]c2ccccc12)NC(=O)[C@H](CCC(=O)O)NC(=O)[C@@H](NC(=O)[C@H](Cc1ccccc1)NC(=O)[C@H](CC(=O)O)NC(=O)[C@H](Cc1c[nH]cn1)NC(=O)[C@H](C)NC(=O)[C@H](C)NC(=O)[C@H](CCCCN)NC(=O)[C@H](CO)NC(=O)[C@H](CC(=O)O)NC(=O)[C@H](CC(C)C)NC(=O)[C@H](Cc1ccc(O)cc1)NC(=O)[C@H](CCCCN)NC(=O)[C@H](CO)NC(=O)[C@H](Cc1ccc(O)cc1)NC(=O)[C@H](CC(=O)O)NC(=O)[C@H](CO)NC(=O)[C@@H](NC(=O)[C@H](Cc1ccccc1)NC(=O)[C@@H](NC(=O)CNC(=O)[C@H](CCC(N)=O)NC(=O)[C@H](CO)NC(=O)[C@@H](N)Cc1ccc(O)cc1)[C@@H](C)O)[C@@H](C)O)C(C)C)C(=O)N[C@@H](CCCNC(=N)N)C(=O)N[C@@H](C)C(N)=O [Compound 1] (H-YSQGTFTSDYSKYLDSKAAHDFVEWLLRA-NH2)	10.89	0.013 nM	0.033 nM				0.033 nM	0.38 nM
